{
  "source": "patent US9456599B2",
  "about": "“Adjuvants” (SYNGENTA LIMITED, priority 2012, dated 2016)",
  "assay_type_in_all_cases": "in vivo",
  "key": {"Septoria tritici [1]": {"system": "Septoria tritici", "experiment": "Septoria tritici on wheat, isopyrazam with B92-P-/B96-P-carbonate (Example 10)", "conditions": "wheat leaf area infected 14 days after spray; isopyrazam 3, 10, 30 and 100 mg/l, adjuvant 0.1% by volume; mean over four rates, twelve replicates", "protocol": "Wheat plants were inoculated with the fungus Septoria tritici. Four days after inoculation the plants were sprayed with a diluted suspension concentrate formulation of the fungicide isopyrazam at rates of 3, 10, 30 and 100 mg of the fungicide per liter of spray solution, using a laboratory track sprayer which delivered the spray at a rate of 200 liters per hectare. Spray tests were also carried out with diluted suspension concentrates additionally comprising the carbonates B92-P-carbonate and B96-P-carbonate (see Table 1) which were added to the spray solution at a rate of 0.1% v/v, based on the quantity of spray liquor. The leaves of the plants were assessed visually 14 days after the spray application and the damage was expressed as the percentage of the leaf area infected. Each spray test was replicated twelve times across the four application rates.\n(§1) The results shown in Table 15 below are mean averages over the four rates of isopyrazam and the twelve replicates, and are compared to the efficacy of isopyrazam in the absence of an adjuvant, and isopyrazam in the presence of oleyl ethoxylate 20EO butyl end capped which was used as a standard for comparative purposes (at 0.1% by volume)."}, "Septoria tritici [2]": {"system": "Septoria tritici", "experiment": "Septoria tritici on wheat, isopyrazam with compound E (Example 8)", "conditions": "wheat leaf area infected 12 days after spray; isopyrazam 3, 10, 30 and 100 mg/l, adjuvant 0.1% by volume; mean over four rates, four replicates", "protocol": "Wheat plants were inoculated with the fungus Septoria tritici. Four days after inoculation the plants were sprayed with a diluted suspension concentrate formulation of the fungicide isopyrazam at rates of 3, 10, 30 and 100 mg of the fungicide per liter of spray solution, using a laboratory track sprayer which delivered the spray at a rate of 200 liters per hectare. Spray tests were also carried out with a diluted suspension concentrate additionally comprising the carbonate compound E (see Table 7) added to the spray solution at a rate of 0.1% v/v, based on the quantity of spray liquor. The leaves of the plants were assessed visually 12 days after the spray application and the damage was expressed as the percentage of the leaf area infected. Each spray test was replicated four times across the four application rates.\nas §1, with “13” for “15”, “four” for “twelve”, “adjuvant” for “which was”, “standard adjuvant” for “standard”"}, "[3]": {"system": "Brachiaria plantaginea, Digitaria sanguinalis, Commelina benghalensis and Polygonum convulvulus", "experiment": "Glasshouse post-emergence spray test, mesotrione with adjuvant (Example 3), mean across species", "conditions": "mesotrione 30 or 60 g/ha, carbonate 0.2% or 0.5% Tween 20 + Rhodasurf DA/630-E; 14 and 21 days; Tukey HSD letter", "protocol": "(§2) Brachiaria plantaginea, Digitaria sanguinalis, Commelina benghalensis and Polygonum convulvulus seeds were sown into standard soil in pots and cultivated under controlled conditions in a glasshouse (at 24/18° C. day/night; 16 hours light; 65% humidity).\n(§3) When the plants were at the vegetative stage of 2-4 leaves they were sprayed with an aqueous spray solution containing the herbicide mesotrione and 0.2% v/v of one of the carbonates B92-P-Carbonate, B92-B-Carbonate and B96-P-Carbonate (see Table 1).\n(§4) The spray solution was applied with a cabinet tracksprayer with a flat fan nozzle (Teejet 11002VS) and an application volume of 200 liter/ha (at 2 bar). Mesotrione was applied at either 30 or 60 grams of pesticide per hectare.\n(§5) The test plants were then grown on, in a glasshouse under controlled conditions (at 24/18° C. day/night; 16 hours light; 65% humidity) and watered twice a day. After 14 and 21 days the test was evaluated for general crop injury (100% equals total damage to a plant; 0% equals no damage to a plant).\n(§6) The results shown in Table 5 below are mean averages over the two rates of mesotrione, three replicates and the two assessment timings, and are compared to the efficacy of mesotrione in the absence of an adjuvant, and mesotrione in the presence of the commercially available tank-mix adjuvant, Tween 20 ®+Rhodasurf DA/630-E® (2:1 in water)."}, "Polygonum convulvulus": {"system": "Polygonum convulvulus", "experiment": "Glasshouse post-emergence spray test, mesotrione with adjuvant (Example 3)", "conditions": "mesotrione 30 or 60 g/ha, carbonate 0.2% or 0.5% Tween 20 + Rhodasurf DA/630-E; mean over two rates, three replicates, 14 and 21 days", "protocol": "as §2, §3, §4, §5, §6"}, "Digitaria sanguinalis": {"system": "Digitaria sanguinalis", "experiment": "Glasshouse post-emergence spray test, mesotrione with adjuvant (Example 3)", "conditions": "mesotrione 30 or 60 g/ha, carbonate 0.2% or 0.5% Tween 20 + Rhodasurf DA/630-E; mean over two rates, three replicates, 14 and 21 days", "protocol": "as §2, §3, §4, §5, §6"}, "Brachiaria plantaginea": {"system": "Brachiaria plantaginea", "experiment": "Glasshouse post-emergence spray test, mesotrione with adjuvant (Example 3)", "conditions": "mesotrione 30 or 60 g/ha, carbonate 0.2% or 0.5% Tween 20 + Rhodasurf DA/630-E; mean over two rates, three replicates, 14 and 21 days", "protocol": "as §2, §3, §4, §5, §6"}, "Commelina benghalensis": {"system": "Commelina benghalensis", "experiment": "Glasshouse post-emergence spray test, mesotrione with adjuvant (Example 3)", "conditions": "mesotrione 30 or 60 g/ha, carbonate 0.2% or 0.5% Tween 20 + Rhodasurf DA/630-E; mean over two rates, three replicates, 14 and 21 days", "protocol": "as §2, §3, §4, §5, §6"}, "[4]": {"system": "Brachiaria plantaginea, Digitaria sanguinalis, Commelina benghalensis and Polygonum convulvulus", "experiment": "Glasshouse spray test, mesotrione with carbonates A-D (Example 6), mean over four plant species", "conditions": "Table 10: mesotrione 30 or 60 g/ha, compounds A-D 0.2%, Tween + Rhodasurf 0.5%; 25 days; mean over rates, replicates, four species", "protocol": "as §2\nWhen the plants were at the vegetative stage of 2-4 leaves they were sprayed with an aqueous spray solution containing the herbicide mesotrione and 0.2% v/v of one of the carbonates A, B, C and D (see Table 7).\nas §4\nas §5, with “25” for “14 and 21”, “injury or phytotoxicity” for “injury”\nas §6, with “10” for “5”, “mesotrione, the” for “mesotrione,”, “four plant species” for “two assessment timings,”, “(combined” for “(2:1”, “a 2:1 ratio) at 0.5% by volume.” for “water).”"}, "[5]": {"system": "Avena fatua, Lolium perenne, Setaria viridis and Alopecurus myosuroides", "experiment": "Glasshouse spray test, pinoxaden with carbonates A-E (Example 7), mean over four plant species", "conditions": "22 days, mean over rates, replicates, four species", "protocol": "(§7) Avena fatua, Lolium perenne, Setaria viridis and Alopecurus myosuroides seeds were sown into standard soil in pots and cultivated under controlled conditions in a glasshouse (at 20/16° C. day/night; 15 hours light; 65% humidity).\nWhen the plants were at the vegetative stage of 2-3 leaves they were sprayed with an aqueous spray solution containing the herbicide pinoxaden and 0.2% v/v of one of the carbonates A, B, C, D and E (see Table 7).\nThe spray solution was applied with a cabinet tracksprayer with a flat fan nozzle (Teejet 11002VS) and an application volume of 200 liter/ha (at 2 bar). Pinoxaden was applied at either 7.5 or 15 grams of pesticide per hectare.\nas §5, with “on.” for “on,”, “22” for “14 and 21”, “injury or phytotoxicity” for “injury”\nThe results shown in Table 11 below are mean averages over the two rates of pinoxaden, the three replicates and the four plant species, and are compared to the efficacy of pinoxaden in the absence of an adjuvant, and pinoxaden in the presence of tris(2-ethylhexyl)phosphate, used as a standard adjuvant for comparative purposes (at 0.2% by […] volume)."}, "Setaria viridis": {"system": "Setaria viridis", "experiment": "Glasshouse post-emergence spray test, pinoxaden with adjuvant (Example 4)", "conditions": "pinoxaden 7.5 or 15 g/ha, adjuvant 0.2%; mean over two rates, three replicates, 14 and 21 days", "protocol": "as §7\n(§8) When the plants were at the vegetative stage of 2-3 leaves they were sprayed with an aqueous spray solution containing the herbicide pinoxaden and 0.2% v/v of one of the carbonates B92-P-Carbonate, B92-B-Carbonate and B96-P-Carbonate (see Table 1).\n(§9) The spray solution was applied with a cabinet tracksprayer with a flat fan nozzle (Teejet 11002VS) and an application volume of 200 liter/ha (at 2 bar). Pinoxaden was applied at either 7.5 or 15 grams of pesticide per hectare. The test plants were then grown on in a glasshouse under controlled conditions (at 24/18° C. day/night; 16 hours light; 65% humidity) and watered twice a day. After 14 and 21 days the test was evaluated for general crop injury (100% equals total damage to a plant; 0% equals no damage to a plant).\nThe results shown in Table 6 below are mean averages over the two rates of pinoxaden, three replicates and the two assessment timings, and are compared to the efficacy of pinoxaden in the absence of an adjuvant, and pinoxaden in the presence of the tris(2-ethylhexyl)phosphate [TEHP, used as a standard, for comparative purposes] (at 0.2% by volume)."}, "[6]": {"system": "Avena fatua, Lolium perenne, Setaria viridis and Alopecurus myosuroides", "experiment": "Glasshouse post-emergence spray test, pinoxaden with adjuvant (Example 4), mean across species", "conditions": "pinoxaden 7.5 or 15 g/ha, adjuvant 0.2%; 14 and 21 days; Tukey HSD letter", "source_text": "as §8\nas §9, with “The test plants were then grown on in a glasshouse under controlled conditions (at 24/18° C. day/night; 16 hours light; 65% humidity) and watered twice a day.” left out"}, "Lolium perenne": {"system": "Lolium perenne", "experiment": "Glasshouse post-emergence spray test, pinoxaden with adjuvant (Example 4)", "conditions": "pinoxaden 7.5 or 15 g/ha, adjuvant 0.2%; mean over two rates, three replicates, 14 and 21 days", "source_text": "as §8\nas §9, with “The test plants were then grown on in a glasshouse under controlled conditions (at 24/18° C. day/night; 16 hours light; 65% humidity) and watered twice a day.” left out"}, "Avena fatua": {"system": "Avena fatua", "experiment": "Glasshouse post-emergence spray test, pinoxaden with adjuvant (Example 4)", "conditions": "pinoxaden 7.5 or 15 g/ha, adjuvant 0.2%; mean over two rates, three replicates, 14 and 21 days", "source_text": "as §8\nas §9, with “The test plants were then grown on in a glasshouse under controlled conditions (at 24/18° C. day/night; 16 hours light; 65% humidity) and watered twice a day.” left out"}, "Alopecurus myosuroides": {"system": "Alopecurus myosuroides", "experiment": "Glasshouse post-emergence spray test, pinoxaden with adjuvant (Example 4)", "conditions": "pinoxaden 7.5 or 15 g/ha, adjuvant 0.2%; mean over two rates, three replicates, 14 and 21 days", "source_text": "as §8\nas §9, with “The test plants were then grown on in a glasshouse under controlled conditions (at 24/18° C. day/night; 16 hours light; 65% humidity) and watered twice a day.” left out"}},
  "data": [
    {"smiles": "CC(C)C1C2CCC1c1c(NC(=O)c3cn(C)nc3C(F)F)cccc12", "note": "(stereo not drawn) [Isopyrazam]", "values": [
      {"measurement": "Mean % infection", "setting": "Septoria tritici [1]", "result": 76.9, "unit": "%"},
      {"measurement": "Mean % infection", "setting": "Septoria tritici [2]", "result": 65.1, "unit": "%"}
    ]},
    {"smiles": "CS(=O)(=O)c1ccc(C(=O)C2C(=O)CCCC2=O)c([N+](=O)[O-])c1", "note": "[Mesotrione]", "values": [
      {"measurement": "Mean percentage kill, Mean across species", "setting": "[3]", "result": 42.5, "unit": "B %"},
      {"measurement": "Mean percentage kill POLCONV", "setting": "Polygonum convulvulus", "result": 70.8, "unit": "%"},
      {"measurement": "Mean percentage kill DIGSA", "setting": "Digitaria sanguinalis", "result": 44.2, "unit": "%"},
      {"measurement": "Mean percentage kill BRAPL", "setting": "Brachiaria plantaginea", "result": 1.7, "unit": "%"},
      {"measurement": "Mean percentage kill COMBEN", "setting": "Commelina benghalensis", "result": 53.3, "unit": "%"},
      {"measurement": "Mean % Phytotoxicity", "setting": "[4]", "result": 33.71, "unit": "%"}
    ]},
    {"smiles": "CCc1cc(C)cc(CC)c1-c1c(OC(=O)C(C)(C)C)n2n(c1=O)CCOCC2", "note": "[Pinoxaden]", "values": [
      {"measurement": "Mean % Phytotoxicity", "setting": "[5]; Table 11: pinoxaden 7.5 or 15 g/ha, compounds A-D or tris(2-ethylhexyl)phosphate 0.2% by volume", "result": 4.25, "unit": "%"},
      {"measurement": "Mean % Phytotoxicity", "setting": "[5]; Table 12: pinoxaden 7.5 or 15 g/ha, compound E or tris(2-ethylhexyl)phosphate 0.2% by volume", "result": 0, "unit": "%"},
      {"measurement": "Mean percentage kill SETARIA VIRIDIS", "setting": "Setaria viridis", "result": 0, "unit": "%"},
      {"measurement": "Mean percentage kill, Mean across species", "setting": "[6]", "result": 2.9, "unit": "C %"},
      {"measurement": "Mean percentage kill LOLIUM PERENNE", "setting": "Lolium perenne", "result": 1.7, "unit": "%"},
      {"measurement": "Mean percentage kill AVENA FATUA", "setting": "Avena fatua", "result": 10.0, "unit": "%"},
      {"measurement": "Mean percentage kill ALOPECURUS MYOSUROIDES", "setting": "Alopecurus myosuroides", "result": 0, "unit": "%"}
    ]}
  ]
}
